This test concerns M. tuberculosis H37Rv growth inhibition. Briefly: M. tuberculosis H37Rv growth inhibitors, H37Rv strain (AID 1626). The following applies: for IC90: measured here: IC90 against H37Rv; for CC50: measured here: Vero cell cytotoxicity.

The term IC50 denotes the midpoint of a concentration-inhibition curve. A word on the IC90: it is the concentration needed for an effect of 90%. High values mean a need for much substance, low ones an effect from little substance. As usually defined, the CC50 is the concentration at which the toxic effect on the cells reaches its halfway point. As for `Cc1[nH]n2c(=O)cc(-c3ccc([N+](=O)[O-])cc3)nc2c1-c1ccccc1`, the IC50 is 0.747 µM, the IC90 came out at 1.43 µM and the CC50 was 35.1 µM.
Regarding `Cc1ccccc1C(=O)Nc1nnc(-c2ccc(F)cc2)o1`, the 50% inhibitory concentration (IC50) is 1.11 µM, the 90% effect concentration (IC90) was 3.78 µM and the half-maximal cytotoxic concentration (CC50) was 39.1 µM.
In the case of `O=C(OCC#CCSc1nnc(-c2ccccc2)o1)c1ccco1`, the IC50 was 1.16 µM and the IC90 was 3.94 µM.
Regarding `COc1cc2c(cc1NCc1ccccn1)oc1ccccc12`, the concentration for half-maximal inhibition (IC50) was 3.09 µM and the concentration for an effect of 90% (IC90) was 21.4 µM.
Consider `O=C1c2cc([N+](=O)[O-])cc3cc([N+](=O)[O-])cc(c23)C(=O)N1c1ccccn1`, for which the half-inhibitory concentration (IC50) is 2.91 µM, the IC90 was found to be 3.34 µM and the CC50 was determined as 35.9 µM.
`Cc1ccc(-c2ccc(/C=C/C(=O)c3ccccc3)o2)cc1`: the IC50 is 19.6 µM, the IC90 was above 100 µM and the CC50 amounted to 24.7 µM.
With `COc1ccc(NC(=O)CN(C)CC(=O)Nc2cccc(F)c2)cc1Cl`, the IC50 was 32 µM and the IC90 was above 100 µM.
As for `Cc1cccc(CN2CCCC(C(=O)c3cccc(OC(C)C)c3)C2)n1` (stereo not drawn), the concentration for half-maximal inhibition (IC50) is 12.3 µM, the IC90 is above 100 µM and the cytotoxic concentration (CC50) was above 40 µM.
`S=c1[nH]cnc2scc(-c3ccc(Br)cc3)c12`: the IC90 was above 100 µM and the CC50 was 34.8 µM.
On to `O=C(Nc1cccnc1)c1c(O)c2cccc3c2n(c1=O)CC3`, for which the IC50 was 1.87 µM and the IC90 amounted to 2.08 µM.
The corresponding values for `CCOC(=O)c1ccc(NC(=O)c2ccc(OC(C)C)c(OC)c2)cc1` are 14.1 µM and 28.2 µM.
For `Cc1[nH]c2ccccc2c1C1=NNC(=Nc2ccc(F)cc2)SC1`, the IC50 was 13.3 µM, the IC90 is 49.8 µM and the CC50 was above 40 µM.
The corresponding values for `CCOc1ccc2nc(NC(=O)c3ccccn3)sc2c1` are 1.36 µM, 3.07 µM and 15.1 µM.
For the compound `CCOc1ccc(-n2cc(-c3ccccc3)c3c(SC(C)C(=O)OC)ncnc32)cc1` (stereo not drawn), the IC50 is 6.4 µM and the concentration for an effect of 90% (IC90) is above 100 µM.
`CCc1ccc(NC(=O)CSc2nnc(-c3ccccn3)n2C)cc1` had a 90% effect concentration (IC90) above 100 µM.
As for `CC(=O)NC(=O)c1ccc(-c2ccc(Cl)cc2)o1`, the half-inhibitory concentration (IC50) was 11.3 µM and the IC90 was above 100 µM.
Turning to `CC(=O)Nc1ccc(Nc2cc(C(C)C)nc3c(-c4ccccc4)c(C)nn23)cc1`, the half-inhibitory concentration (IC50) was 5.08 µM, the IC90 was found to be 9 µM and the 50% cytotoxic concentration (CC50) was above 40 µM.
Consider `COc1ccccc1NC(=O)CN1CCN(C2c3ccccc3-c3ccccc32)CC1`, for which the IC90 is above 100 µM and the half-maximal cytotoxic concentration (CC50) was above 40 µM.
With `COc1cccc(CNCCc2c[nH]c3ccccc23)c1OCc1ccccc1F`, the IC50 was 7.08 µM, the concentration for an effect of 90% (IC90) came out at 11.3 µM and the 50% cytotoxic concentration (CC50) worked out at 14.4 µM.
As for `O=[N+]([O-])c1cccnc1N1CCC(c2cc(-c3cccc(C(F)(F)F)c3)n[nH]2)CC1`, the IC50 was 6.34 µM, the concentration for an effect of 90% (IC90) was found to be 11 µM and the CC50 was above 40 µM.
The corresponding values for `Cc1ccccc1OCc1n(CC(=O)OC2CC(C)CCC2C(C)C)c2ccccc2[n+]1C` (stereo not drawn) are 3.74 µM, 5.17 µM and 24.4 µM.
The corresponding values for `COc1cccc(CC2(CO)CCCN(Cc3[nH]c4ccc(C)cc4c3C)C2)c1` (stereo not drawn) are 8.49 µM, 11.2 µM and above 40 µM.
In the case of `COCCOC(=O)c1c(C)oc2ccc(OC(=O)c3ccco3)cc12`, the half-inhibitory concentration (IC50) is 7.1 µM and the concentration for an effect of 90% (IC90) was above 100 µM.
`CCCCOC(=O)c1ccc(NC(=O)C(=O)NCc2ccccn2)cc1` yielded an IC90 above 100 µM.
`CCOC(=O)CSc1nnc(-c2ccc(Cl)cc2Cl)o1`: the IC50 is below 0.391 µM and the 90% effect concentration (IC90) is 9.47 µM.
`COc1ccc(-c2ccnc3nc(N4CCN(c5ccccc5)CC4)nn23)cc1`: the IC50 was 14.9 µM, the IC90 was above 100 µM and the half-maximal cytotoxic concentration (CC50) was above 40 µM.
`COc1c(N2CCNC(C)C2)c(F)cc2c(=O)c(C(=O)O)cn(C3CC3)c12` (stereo not drawn): the IC50 was below 0.195 µM and the IC90 is below 0.195 µM.
Turning to `O=C(NCCC1=CCCCC1)NC12CC3CC(CC(C3)C1)C2`, the concentration for half-maximal inhibition (IC50) was below 0.195 µM and the IC90 came out at 67.6 µM.
Regarding `CCOC(=O)C1=C(CC)Nc2ccccc2N=C1NC(=O)Nc1ccc(Cl)c(Cl)c1`, the concentration for half-maximal inhibition (IC50) is 2.73 µM, the IC90 amounted to 3.1 µM and the CC50 amounted to 10.3 µM.
The corresponding values for `CCCOc1cccc(-c2nn(-c3ccccc3)cc2/C=C(\C#N)C(=O)NCCCn2ccnc2)c1` are 10.9 µM, 11.9 µM and above 40 µM.
The corresponding values for `CCOc1ccc(-c2cc(CCCC(=O)Nc3cccc(OC)c3)no2)cc1` are 10.7 µM, above 100 µM and above 40 µM.
As for `O=C(CN1C(=O)C2C3CCC(C3)C2C1=O)Oc1ccc2ccccc2c1` (stereo not drawn), the IC90 is above 100 µM.
`Cc1ccc(NC(=O)CSCC#N)cc1Cl`: the IC50 is 47.5 µM and the concentration for an effect of 90% (IC90) was above 100 µM.
In the case of `Cc1ccc(CNCc2cc3c(C(C)(C)C)nn(-c4ccccc4)c3[nH]c2=O)cc1`, the IC50 was 8.33 µM, the IC90 turned out to be 11 µM and the CC50 is above 40 µM.
The corresponding values for `Cc1cc(NC(=O)c2c(F)cccc2Cl)n(-c2nc3ccccc3[nH]2)n1` are 16.5 µM, 25.9 µM and above 40 µM.
For the compound `O=C(Nc1nc2ccccc2[nH]1)c1cc2ccccc2o1`, the IC50 was 37.2 µM, the IC90 is above 100 µM and the CC50 is above 40 µM.
Take `CC1CCN(c2nc(-c3cccnc3)nc3scc(-c4ccccc4)c23)CC1`: the half-maximal inhibitory concentration (IC50) was 5.94 µM and the concentration for an effect of 90% (IC90) was found to be 65.3 µM.
For `Cc1cccc(Cc2cnc(N3C(=N)SC(c4ccccc4)C3=O)s2)c1` (stereo not drawn), the half-maximal inhibitory concentration (IC50) was 8.81 µM, the IC90 was above 100 µM and the 50% cytotoxic concentration (CC50) amounted to 36.8 µM.
Regarding `CCn1c(NC(=O)c2nn(C)cc2Br)nc2ccccc21`, the IC50 is 6.62 µM, the IC90 is 13.2 µM and the 50% cytotoxic concentration (CC50) was above 40 µM.
Consider `Cc1ccc(-c2nnc3sc(CCc4ccccc4)nn23)cc1`, for which the IC50 is 1.63 µM and the IC90 was 6.83 µM.
Regarding `CCC(=O)c1coc2ccc(O)cc12`, the IC50 was 11.1 µM and the IC90 is above 100 µM.
On to `COc1cc2c(cc1NC(=O)CSc1nc3ccccc3[nH]1)oc1ccccc12`, for which the IC50 was 10.4 µM, the IC90 is above 100 µM and the CC50 is above 40 µM.
For the compound `CCCCc1ccc(NC=C2C(=O)OC3(CCCCC3)OC2=O)cc1`, the concentration for half-maximal inhibition (IC50) was 6.18 µM and the IC90 was above 100 µM.
`COc1ccc(N2C(=O)NC(=O)/C(=C/c3cccc(OC(=O)c4cccs4)c3)C2=O)cc1Cl`: the 50% inhibitory concentration (IC50) was 5.35 µM and the concentration for an effect of 90% (IC90) was determined as 17.5 µM.
The corresponding values for `Nc1ccc(OCc2ccco2)cc1` are 5.19 µM and above 100 µM.
Regarding `COc1cc(/C=C/C(=O)OCC(=O)NC(=O)NC23CC4CC(CC(C4)C2)C3)ccc1OCC#N`, the IC50 was 8.37 µM, the concentration for an effect of 90% (IC90) was above 100 µM and the CC50 is above 40 µM.
In the case of `COc1ccc(NC(=O)c2ccc(OC(F)F)cc2)cc1Cl`, the 50% inhibitory concentration (IC50) is 20.7 µM and the IC90 was above 100 µM.
As for `CCOC(=O)c1cnn(C(=O)c2ccccc2)c1N`, the IC90 is above 100 µM.
As for `N=c1c2c(ncn1Cc1ccco1)Oc1c(ccc3ccccc13)C2c1ccccc1` (stereo not drawn), the concentration for half-maximal inhibition (IC50) was 3.88 µM, the IC90 was determined as 5.43 µM and the CC50 was 8.95 µM.
With `CCc1ccc(CCC(=O)Nc2ccc(C)c(C)c2)o1`, the half-inhibitory concentration (IC50) was 14.8 µM and the 90% effect concentration (IC90) was above 100 µM.
Regarding `O=C(Nc1nc2c(F)cc(F)cc2s1)c1ccccn1`, the concentration for half-maximal inhibition (IC50) was 0.34 µM, the concentration for an effect of 90% (IC90) came to 1.49 µM and the cytotoxic concentration (CC50) is 3.89 µM.
As to `COc1ccc(C2CC(=O)C3=C(C2)NC(C)=C(C#N)C3c2ccc(N(C)C)cc2)cc1` (stereo not drawn), the IC50 is 12.5 µM and the 90% effect concentration (IC90) is 21.9 µM.
The corresponding values for `O=C1CCC(=O)N1CNc1ccc(Oc2ccccc2)cc1` are 2.58 µM and above 100 µM.
`O=C(Nc1ncc(Cc2ccccc2)s1)C1=NCCN1`: the concentration for half-maximal inhibition (IC50) was 11.6 µM, the 90% effect concentration (IC90) was above 100 µM and the half-maximal cytotoxic concentration (CC50) is above 40 µM.
As to `COc1cc2c(cc1NCc1ccc3c(c1)OCO3)oc1ccccc12`, the half-maximal inhibitory concentration (IC50) is 89.1 µM and the IC90 was above 100 µM.
On to `COc1ccc(CNC(=O)c2sc3nc4c(c(C(F)(F)F)c3c2N)CCC4)cc1OC`, for which the half-inhibitory concentration (IC50) is 12 µM and the IC90 was found to be 18.3 µM.
Regarding `CCOC(=O)c1cnc2ccc(OCC)cc2c1NCc1ccccc1`, the concentration for half-maximal inhibition (IC50) is 15.7 µM, the IC90 came out at 22.2 µM and the CC50 was above 40 µM.
On to `CCOC(=O)COc1ccc(S(=O)(=O)NCCC2=CCCCC2)cc1`, for which the concentration for half-maximal inhibition (IC50) is 12.1 µM and the 90% effect concentration (IC90) was found to be 20.8 µM.
For `CCCc1cc(=O)[nH]c(SCC(=O)Nc2nc3ccc(OCC)cc3s2)n1`, the CC50 was above 40 µM.
On the same count and under the same terms, the figure for `CCc1ccccc1NC(=O)c1cccc(NC(=O)/C=C/c2ccco2)c1` is above 40 µM.
Turning to `COc1ccccc1OC(=O)CCN1c2ccccc2Sc2ccccc21`, the IC50 is 11.8 µM and the 90% effect concentration (IC90) stood at 17.5 µM.
With `O=C(Nc1ncc(Cc2cccc(Cl)c2)s1)C1=NCCN1`, the IC50 is 6.98 µM, the concentration for an effect of 90% (IC90) is above 100 µM and the CC50 is above 40 µM.
As to `Cc1cc(C(=O)CCl)c(C)n1Cc1ccco1`, the IC50 was 3.34 µM, the IC90 worked out at 8.28 µM and the cytotoxic concentration (CC50) is 12.1 µM.
Regarding `COCc1cc(S(=O)c2ccc(Cl)cc2)nc(C)n1` (stereo not drawn), the 50% inhibitory concentration (IC50) is 15.1 µM, the IC90 came out at 24.3 µM and the CC50 was 22.1 µM.
Regarding `Cc1ccccc1NC(=O)c1ccc(OCC(=O)Nc2ccccc2F)cc1`, the IC50 was 76 µM and the IC90 is above 100 µM.
`CCOC(=O)CSc1ncnc2c1cnn2-c1ccc(C)cc1C`: the IC50 was 1.44 µM and the IC90 came out at 2.48 µM.
In the case of `CCCCOC(=O)c1ccc(N=Nc2c(C)c(C#N)c(O)[nH]c2=O)cc1`, the half-maximal inhibitory concentration (IC50) is below 0.195 µM and the 90% effect concentration (IC90) was above 100 µM.
